Laboratory results reported in US6492427B2, “Methods for treating multiple sclerosis” (priority 1998, dated 2002).
Entries after “also recorded” stand apart in the source; their conditions may differ. *1 amine or outer side, *2 acyl side, *3 side chain or, on linkers, in order; H or OH if unused. Where a SMILES comes first, the peptide text is derived from it. Bridges are numbered along the chain shown (N, C = ends). Roman numbers before positions name the chains, in order. [ ]: non-standard residue; d: D form. Actinocin(9to1) = Cc1c2oc3c(C)ccc(C(=O)[*:1])c3nc-2c(C(=O)[*:2])c(N)c1=O; NMeV = CN[C@H](C(=O)O)C(C)C; Sar = CNCC(=O)O

Columns and labels:
Assay type in all cases: cell-based, rat
[1] = tested on: oligodendroglial cells; assay: Nuclear integrity assay: counts of intact nuclei (Zap-oglobin lysis) after insulin and IGF-I withdrawal; conditions: for counts of intact nuclei compared to BM: alone in BM at 10^−5, 10^−7 and 10^−9 M; for numbers of intact nuclei for IGF-I and insulin withdrawn cells: alone in BM, actinomycin 1, 2.5, 5 μg/ml, cycloheximide 1, 5, 10, 50 μg/ml
Description: In order to examine insulin and IGF-I dependent survival of the cells of the oligodendroglial lineage, cells were trophically deprived for a period of 24 hours at 16 DIV.
Cells were trophically withdrawn by replacing the media with a serum free, chemically-defined base media (BM) lacking insulin and IGF-I (Bottenstein et al., 1988). The base media consisited of DMEM supplemented with penicillin (50 IU/ml); streptomycin (50 μg/ml); 1 mM sodium pyruvate; 50 μg/ml transferrin; 0.005 μg/ml sodium selenite; 16 μg/ml putrescine; 0.006 μg/ml progesterone and 0.1 mg/ml bovine serum albumin. All the cells were washed with BM twice before exposing them to individual treatment conditions. Control cells were washed and placed in BM supplemented with 2.5 ng/ml IGF-I and 5 μg/ml insulin to form the insulin media (IM).
Cell survival in the cultures was assessed according to the method of (Soto and Sonnenschein, 1985). After washing and treatment in BM, BM-D9, IM and IM-D9 for 24 h, cells were harvested, centrifuged at 500 rpm for 5 min and the supernatant removed. Pelleted cells were then lysed with 200 μl of 10% Zap-oglobin (Coulter Electronics, FL, USA). The lysing agent is a detergent containing solution that lyses the plasma membrane but leaves the nuclei intact. The lysed solution was collected and vortexed. A small volume (10 μl) of the solution was removed and intact nuclei were counted using a haemocytometer. To be counted, nuclei had to show a completely intact smooth outer border. Counts of intact nuclei were pooled for three or four experiments (a total of 15-20 wells were used for each treatment condition). each treatment condition).
OLs at 16 DIV were exposed to the different drug treatment conditions for 24 h, following which, the nuclear integrity assay was performed. On the day of the treatment, the cells growing in Nunc 24 well plates were washed twice with base media. Each treatment well received 50 μl of the appropriate drug solution and the total volume in the well was made up to 500 μl with either BM or IM.
Nuclear counts were obtained from quadruplicate wells per treatment condition and the experiment was repeated twice. OLs were exposed to the following treatment conditions: 1) IM, 2) BM, 3) BM-D9, 4) (−)-Desmethyldeprenyl (BM-Ds9), 5) IM-D9 and 6) IM +10^−9 M (−)-Desmethyldeprenyl (IM-Ds9).
The treatment conditions with the three general cytochrome P450 blockers were: 1) BM+Proadifen (2.5, 10, 25 μM), 2) BM-D9+Proadifen (2.5, 10, 25 μM), 3) BM-Ds9+Proadifen (2.5, 10, 25 μM), 4) BM+Metapyrone (50 μM), 5) BM-D9+Metapyrone (50 μM), 6) BM-Ds9+Metapyrone (50 μM), 7) BM+Piperonyl butoxide (100 μM), 5) BM-D9+Piperonyl butoxide (100 μM), 6) BM-Ds9+Piperonyl butoxide (100 μM).
OLs at 16 DIV were washed twice with base media and exposed either to actinomycin, a transcriptional blocker or cycloheximide, a translational blocker for 24 h. […] Actinomycin and cycloheximide were either used with base media alone or in combination with 10^−9 M (−)-desmethyldeprenyl. Each treatment well received 50 μl of the drug solution and the total volume of the well was made up to 500 μl with base media.
Counts of intact nuclei, obtained from quadruplicate wells per treatment condition were used to quantitate the effects of the transcriptional and translational blockers. Each experiment was repeated twice for experimental density series-II.

[2] = tested on: mitochondrial membrane potential (ΔψM) of oligodendroglial cells; assay: CMTMR estimation of mitochondrial membrane potential by confocal microscopy; parameters: ΔΨM (18 h): key to the marks not given beside the values; conditions: for capacity of (−)-deprenyl and (−)-desmethyldeprenyl to maintain ΔψM in OL mitochondria: 10^−5 M with 10^−9 M (−)-deprenyl or (−)-desmethyldeprenyl in BM; for increases in ΔψM induced by (−)-deprenyl on OL mitochondria: proadifen 10 μM, metyapone 50 μM or piperonyl butoxide 100 μM with 10^−9 M (−)-deprenyl in BM
Description: The ΔψM was assessed by the addition of a lipophilic, potentiometric dye, chloromethyl-tetramethylrhodamine methyl ester (CMTMR, Mitotracker Orange™ Molecular Probes, Eugene, Oreg.). The CMTMR dye reacts with the thiol groups on proteins and peptides to form aldehyde fixable conjugates. Entry of the negatively charged mitochondrial matrix compartment is proportional to the difference in the membrane potential. Therefore, the CMTMR fluorescence labels the mitochondrial membrane potential generated due to the negativity difference between the mitochondrial matrix and the outside of the mitochondria. Upon cell fixation, CMTMR remains in the mitochondria and is not washed out unlike other mitochondrial potentiometric dyes like rhodamine123.
Oligodendrocytes at 16 DIV were placed in trophically deprived BM for 18 h or treated with BM-D9 or BM-Ds9. […] The cells were incubated in CMTMR at 37° C. for 15 min. The cells were then fixed with 4% cold paraformaldehyde on ice for 30 min and washed twice with 0.1M PBS. Consequently, the coverslips were mounted on glass slides with Aquamount (Gurr, England).
Individual mitochondria labeled with CMTMR were resolved by confocal microscopy. A Leica true confocal scanning (TCS) 4D microscope coupled to an argon-krypton laser (Omnichrome, USA) was used for cell imaging. A pinhole size of 20 with an excitation filter wavelength of 568 nm and an emission filter wavelength of 590 nm was used to image the CMTMR labeled mitochondria. Each field of the coverslip was imaged using an oil-immersion, 100 X, 1.3 N.A. objective at 512 by 512 by 8 bits per pixel resolution, background offset of −1 and line averaged 32 times in bi-directional line scan mode. Care was taken not to exceed the dynamic range of the gray value display. The confocal images obtained were saved on an optical drive in a tagged image file format (TIFF).
Fluorescence intensity of individual mitochondria was measured using the Metamorph™ program. Metamorph™ compiles measurements of objects in a 8-bit image ranging from gray values 0 (background) and 255. In order to obtain fluorescence intensity measures, a rectangular region tool of 2×2 pixels was used to measure two randomly selected areas within each mitochondrion. A total of ten mitochondria obtained equally from all the regions of each cell were measured within each image. About 20 images were analyzed for each treatment condition thereby giving a sum of about 400 mitochondrial fluorescence intensity measures. The raw values were then further graphed and analyzed with the Microcal Origin 4.1 program. Frequency count was performed on the data, which classified the data in ordered bins. A frequency distribution was obtained with lower bin value set at 0 and higher bin value set at 260.

[3] = tested on: MBP, PLP, GC and CNPase-I; assay: Western blot of PROL and OL marker proteins; conditions: BM + 10^−9 M, 18 h

SMILES: C#CCN(C)C(C)Cc1ccccc1 (single isomer, unassigned; (+)) [(+)-deprenyl]
- concentration-survival relationship, numbers of intact nuclei ([1]; BM with 10^−5, 10^−7 and 10^−9 M, 24 h): did not alter the numbers of intact nuclei from the values found for BM

SMILES: CC(N)Cc1ccccc1 (single isomer, unassigned; (-)) [(−)-amphetamine]
- capacity of (−)-deprenyl to increase survival of oligodendroglial cells ([1]; 10^−3, 10^−5, 10^−7, 10^−9 M in combination with 10^−9 M (−)-deprenyl in BM, 24 h): markedly reduced the capacity of (−)-deprenyl to increase the survival
- capacity of 10^−9 M (−)-desmethyldeprenyl to increase survival of oligodendroglial cells ([1]; 10^−5 M with 10^−9 M (−)-desmethyldeprenyl in BM, 24 h): completely eliminated the capacity of 10^−9 M (−)-desmethyldeprenyl to increase the survival
- counts of intact nuclei compared to BM ([1]; 24 h): did alter the counts of intact nuclei
- capacity of (−)-deprenyl and (−)-desmethyldeprenyl to maintain ΔψM in OL mitochondria ([2]; 18 h): reduce the capacity of (−)-deprenyl and (−)-desmethyldeprenyl to maintain ΔψM

SMILES: C#CCN[C@H](C)Cc1ccccc1 [(−)-desmethyldeprenyl]
- increase in counts of intact nuclei compared to those for BM ([1]; BM + 10^−9 M, 24 h, metabolite experiments (FIG. 11)): 197%
- numbers of intact nuclei relative to IM ([1]; IM + 10^−9 M, 24 h, metabolite experiments (FIG. 11)): 103%
- Survival (24 h) ([1]; OL cell survival, relative to control (IM)): ++++
- mitochondrial CMTMR fluorescence distributions (ΔψM) in ASTs, PROLs and OLs ([2]; BM + 10^−9 M, 18 h): not significantly different to those found for IM; also recorded: prevented the decrease in ΔψM
- ΔΨM (18 h) ([2]; OL, relative to control (IM)): ++++
- band densities for MBP, CNP-ase I and PLP compared to IM [3]: exceed those for IM
- immunodensity of marker proteins (MBP, PLP, GC, CNPase-I) compared to BM [3]: marked increase in immunodensity compared to BM

SMILES: CN[C@@H](C)Cc1ccccc1 [(−)-methamphetamine]
- increase in numbers of intact nuclei induced by (−)-deprenyl ([1]; 10^−5, 10^−7, 10^−9 M in combination with 10^−9 M (−)-deprenyl in BM, 24 h): significantly reduced the increase in numbers of intact nuclei induced by (−)-deprenyl in a graded concentration dependent manner
- counts of intact nuclei compared to BM ([1]; 24 h): did alter the counts of intact nuclei
- capacity of (−)-deprenyl and (−)-desmethyldeprenyl to maintain ΔψM in OL mitochondria ([2]; 18 h): reduce the capacity of (−)-deprenyl and (−)-desmethyldeprenyl to maintain ΔψM

SMILES: Cc1c2oc3c(C)ccc(C(=O)N[C@@H]4C(=O)N[C@H](C(C)C)C(=O)N5CCC[C@H]5C(=O)N(C)CC(=O)N(C)[C@@H](C(C)C)C(=O)O[C@@H]4C)c3nc-2c(C(=O)N[C@@H]2C(=O)N[C@H](C(C)C)C(=O)N3CCC[C@H]3C(=O)N(C)CC(=O)N(C)[C@@H](C(C)C)C(=O)O[C@@H]2C)c(N)c1=O [actinomycin] (I: T[dV]P[Sar][NMeV] / II: T[dV]P[Sar][NMeV]; ester I:1-I:C, II:1-II:C; linker I:N-II:N via Actinocin(9to1))
- numbers of intact nuclei for IGF-I and insulin withdrawn cells ([1]; 24 h): Neither agent altered the numbers of intact nuclei

SMILES: C[C@@H]1C[C@@H]([C@H](O)CC2CC(=O)NC(=O)C2)C(=O)[C@@H](C)C1 [cycloheximide]
- numbers of intact nuclei for IGF-I and insulin withdrawn cells ([1]; 24 h): Neither agent altered the numbers of intact nuclei

SMILES: CC(C)(C(=O)c1cccnc1)c1cccnc1 [metapyrone, 2-methyl-1,2-di(3-pyridyl)-1-propanone]
- increases in ΔψM induced by (−)-deprenyl on OL mitochondria ([2]; 18 h): blocked the increases in ΔψM induced by (−)-deprenyl

SMILES: CCCC(C(=O)OCCN(CC)CC)(c1ccccc1)c1ccccc1 [proadifen]
- number of intact nuclei when compared to IM ([1]; proadifen 2.5 μM with 10^−9 M (−)-deprenyl in BM, 24 h): 144%
- number of intact nuclei when compared to IM ([1]; proadifen 10 μM with 10^−9 M (−)-deprenyl in BM, 24 h): 109%
- number of intact nuclei when compared to IM ([1]; proadifen 25 μM with 10^−9 M (−)-deprenyl in BM, 24 h): 91%
- intact nuclei values for BM only ([1]; proadifen 2.5, 10, 25 μM alone in BM, 24 h): did alter the values for BM only
- increase in intact nuclei induced by 10^−9 M (−)-desmethyldeprenyl ([1]; proadifen 2.5, 10, 25 μM with 10^−9 M (−)-desmethyldeprenyl in BM, 24 h): did not reduce the increase in intact nuclei
- increases in ΔψM induced by (−)-deprenyl on OL mitochondria ([2]; 18 h): blocked the increases in ΔψM induced by (−)-deprenyl
